Data taken from PMC7318554 (Journal of medicinal chemistry, 2020).
Where two headings read alike, the source gives them in different places.

Experiments:
[1] = target: EGFR e19d (EGFR mutant with exon 19 deletion) (Homo sapiens, UniProt P00533, DEL746-750); test: Western blotting of EGFR protein in HCC-827 cells; format: cell-based; conditions: for time after washout at which the EGFR protein level was recovered: 12 h degrader treatment, then washout; for maximum EGFR protein degradation: at a concentration as low as 50 nM, 16 h; for hook effect: highest concentration 10 μM (PROTAC3: 1 and 10 μM)
in vivo = conditions: male, Swiss Albino, mouse, ip, 50 mg/kg
EGFR = EGFR (Homo sapiens, UniProt P00533, DEL746-750); test: Global label-free quantitative proteomics in HCC-827 cells; format: cell-based; conditions: HCC-827 cells starved 8 h; 100 nM for 16 h
WT EGFR [2] = target: T1, WT EGFR (Homo sapiens, UniProt P00533); test: Western blotting of WT EGFR protein in OVCAR-8 cells; format: cell-based; conditions: 8 h serum-free, 16 h treatment
H3255 cells = test: Cell proliferation assay; format: cell-based; conditions: 3 days
WT EGFR [3] = target: T1, WT EGFR; test: Western blotting of WT EGFR protein in H1299 cells; format: cell-based; conditions: 8 h serum-free, 16 h treatment
p-EGFR, p-AKT [4] = test: Western blotting of downstream signaling; format: cell-based
EGFR L858R [5] = target: T2, EGFR L858R (Homo sapiens, UniProt P00533, L858R); test: KINOMEscan competition binding assay, EGFR L858R; conditions: EGFR L858R mutant
EGFR L858R [6] = target: T2, EGFR L858R; test: Western blotting of EGFR protein in H3255 cells; format: cell-based; conditions: for reversibility of EGFR degradation upon washout / maximum EGFR protein degradation / hook effect / effect on mutant EGFR protein level: H3255 cells; for reversibility of EGFR degradation upon washout: 12 h degrader treatment, then washout; for maximum EGFR protein degradation: at a concentration as low as 50 nM, 16 h; for hook effect: highest concentration 10 μM (PROTAC3: 1 and 10 μM); for effect on mutant EGFR protein level: 8 h serum-free, 16 h treatment, gefitinib at 1 μM
[7] = Mouse pharmacokinetic study; conditions: mice; single IP injection 50 mg/kg
p-EGFR, p-AKT [8] = test: Western blotting of downstream signaling; format: cell-based; remark: listed apart in the source
EGFR WT = EGFR WT (Homo sapiens, UniProt P00533); test: KINOMEscan competition binding assay, EGFR WT
WT EGFR [9] = target: T1, WT EGFR; conditions: previous finding; cited from earlier work
[10] = 100 nM, after 8 h serum starvation
[11] = HCC-827 cells, 12 h degrader treatment, then washout
[12] = HCC-827 cells, 16 h treatment, gefitinib at 1 μM
[13] = H3255 cells, 16 h treatment, gefitinib at 1 μM

In the case of `COc1cc2ncnc(Nc3ccc(F)c(Cl)c3)c2cc1OCCCN1CCN(C(=O)CCCCCCCCCC(=O)N[C@H](C(=O)N2C[C@H](O)C[C@H]2C(=O)NCc2ccc(-c3scnc3C)cc2)C(C)(C)C)CC1` [Compound 6, (2S,4R)-1-((S)-2-(11-(4-(3-((4-((3-Chloro-4-fluorophenyl)amino)-7-methoxyquinazolin-6-yl)oxy)propyl)piperazin-1-yl)-11-oxounde-canamido)-3,3-dimethylbutanoyl)-4-hydroxy-N-(4-(4-methylthiazol-5-yl)benzyl)pyrrolidine-2-carboxamide], the “treatment time to near-complete / maximum EGFR degradation” value [1, 10] is reported as “around 12 h”, the “time after washout at which the EGFR protein level was recovered” value [1] is reported as 24 h and the “maximum EGFR protein degradation” value [1] is reported as “over 95%”. For the same molecule, the hook effect [1] was “slight “hook effect””, the concentration at 24 h (in vivo) was about 1000 nM and the EGFR protein degraded (EGFR) was “Over 75%”. The “effect on WT EGFR protein levels” value (WT EGFR [2]) was “did not significantly reduce the WT EGFR protein levels”, the cell growth inhibition (H3255 cells) was “effectively inhibited the growth of H3255 cells” and the “potency at cell growth inhibition compared with PROTAC3” value (H3255 cells) was “more potent than the previously reported PROTAC3”. The “potency at cell growth inhibition compared with gefitinib” value (H3255 cells) was “less potent”, the “effect on WT EGFR protein levels” value (WT EGFR [3]) was “did not significantly reduce the WT EGFR protein levels” and the “effect on AKT protein levels” value (p-EGFR, p-AKT [4]) was “did not affect the AKT protein levels”. For the same molecule, the “inhibition of EGFR autophosphorylation (p-EGFR) and AKT phosphorylation (p-AKT)” value (“inhibition of EGFR autophosphorylation … (p-AKT)” for short) (p-EGFR, p-AKT [4]) was “potently inhibited”, the “time after washout at which p-AKT was recovered” value (p-EGFR, p-AKT [4]) was 48 h and the “time after washout at which p-EGFR was recovered” value (p-EGFR, p-AKT [4]) was 24 h. The “treatment time at which robust inhibition of p-AKT was observed” value (p-EGFR, p-AKT [4]) was 1 h, the “weaker binding affinity compared to gefitinib” value (EGFR L858R [5]) was “approximately 10 fold” and the “reversibility of EGFR degradation upon washout” value (EGFR L858R [6]) was “reversible”. For the same molecule, the “maximum EGFR protein degradation” value (EGFR L858R [6]) was “over 95%”, the hook effect (EGFR L858R [6]) was “undetectable” and the “plasma concentration maintained over 8 h” value [7] was “approximately 5 μM”. The tolerability [7] was “well tolerated, and no clinical signs were observed”, the “effect on AKT protein levels” value (p-EGFR, p-AKT [8]) was “did not affect the AKT protein levels” and the “inhibition of EGFR autophosphorylation … (p-AKT)” value (p-EGFR, p-AKT [8]) was “potently inhibited”. The “weaker binding affinity compared to gefitinib” value (EGFR WT) was “approximately 10 fold”.

With `COc1cc2ncnc(Nc3ccc(F)c(Cl)c3)c2cc1OCCCN1CCN(CCC(=O)NCCCCCCCCOc2cccc3c2C(=O)N(C2CCC(=O)NC2=O)C3=O)CC1` (centres unmarked) [Compound 10, 3-(4-(3-((4-((3-Chloro-4-fluorophenyl)amino)-7-methoxyquinazolin-6-yl)oxy)propyl)piperazin-1-yl)-N-(8-((2-(2,6-dioxopiperidin-3-yl)-1,3-dioxoisoindolin-4-yl)oxy)octyl)propanamide] the “time to reduce the half-maximum of the EGFR protein level” value [1, 10] was 3.5 h, the “treatment time to near-complete / maximum EGFR degradation” value [1, 10] was 12 h and the “time after washout at which the EGFR protein level was recovered” value [1] was 24 h. The “maximum EGFR protein degradation” value [1] was “over 95%”, the hook effect [1] was “slight “hook effect”” and the EGFR protein degraded (EGFR) was “Over 75%”. The “effect on WT EGFR protein levels” value (WT EGFR [2]) was “did not significantly reduce the WT EGFR protein levels”, the cell growth inhibition (H3255 cells) was “inhibited the growth of H3255 cell” and the “potency at cell growth inhibition compared with PROTAC3” value (H3255 cells) was “not as potent as compound 6 and PROTAC3”. For the same molecule, the “potency at cell growth inhibition compared with gefitinib” value (H3255 cells) was “less potent”, the “effect on WT EGFR protein levels” value (WT EGFR [3]) was “did not significantly reduce the WT EGFR protein levels” and the “effect on AKT protein levels” value (p-EGFR, p-AKT [4]; HCC-827 cells) was “did not affect the AKT protein levels”. The “time after washout at which p-AKT was recovered” value (p-EGFR, p-AKT [4]; [11]) was 48 h, the “time after washout at which p-EGFR was recovered” value (p-EGFR, p-AKT [4]; [11]) was 24 h and the “inhibition of EGFR autophosphorylation … (p-AKT)” value (p-EGFR, p-AKT [4]; [12]) was “potently inhibited”. For the same molecule, the “weaker binding affinity compared to gefitinib” value (EGFR L858R [5]) was 5 fold, the “reversibility of EGFR degradation upon washout” value (EGFR L858R [6]) was “reversible” and the “maximum EGFR protein degradation” value (EGFR L858R [6]) was “over 95%”. The hook effect (EGFR L858R [6]) was “undetectable”, the highest plasma concentration [7] was “approximately 500 nM” and the “time post dosing of the highest plasma concentration” value [7] was 8 h. For the same molecule, the tolerability [7] was “well tolerated, and no clinical signs were observed”, the “effect on AKT protein levels” value (p-EGFR, p-AKT [8]; H3255 cells) was “did not affect the AKT protein levels” and the “inhibition of EGFR autophosphorylation … (p-AKT)” value (p-EGFR, p-AKT [8]; [13]) was “potently inhibited”.

With `COc1cc2ncnc(Nc3ccc(F)c(Cl)c3)c2cc1OCCCN1CCN(C(=O)CCCCCCCCCC(=O)N[C@H](C(=O)N2C[C@@H](O)C[C@@H]2C(=O)NCc2ccc(-c3scnc3C)cc2)C(C)(C)C)CC1` [Compound 27, (2R,4S)-1-((S)-2-(11-(4-(3-((4-((3-Chloro-4-fluorophenyl)amino)-7-methoxyquinazolin-6-yl)oxy)propyl)piperazin-1-yl)-11-oxoundecanamido)-3,3-dimethylbutanoyl)-4-hydroxy-N-(4-(4-methylthiazol-5-yl)benzyl)pyrrolidine-2-carboxamide] the “inhibition of EGFR autophosphorylation … (p-AKT)” value (p-EGFR, p-AKT [4]) was “lower potency”, the “effect of 2 h pretreatment on EGFR degradation induced by compound 6” value (EGFR L858R [6]) was “blocked” and the “effect on mutant EGFR protein level” value (EGFR L858R [6]) was “did not significantly induce the degradation of EGFR mutants”. The “inhibition of EGFR autophosphorylation … (p-AKT)” value (p-EGFR, p-AKT [8]) was “lower potency”.

For `COc1cc2ncnc(Nc3ccc(F)c(Cl)c3)c2cc1OCCCN1CCN(CCC(=O)NCCCCCCCCOc2cccc3c2C(=O)N(C2CCC(=O)N(C)C2=O)C3=O)CC1` (centres unmarked) [Compound 28, 3-(4-(3-((4-((3-Chloro-4-fluorophenyl)amino)-7-methoxyquina-zolin-6-yl)oxy)propyl)piperazin-1-yl)-N-(8-((2-(1-methyl-2,6-dioxopiperidin-3-yl)-1,3-dioxoisoindolin-4-yl)oxy)octyl)propanamide], the “inhibition of EGFR autophosphorylation … (p-AKT)” value (p-EGFR, p-AKT [4]; [12]) was “lower potency”, the “effect on mutant EGFR protein level” value (EGFR L858R [6]) was “did not significantly induce the degradation of EGFR mutants” and the “inhibition of EGFR autophosphorylation … (p-AKT)” value (p-EGFR, p-AKT [8]; [13]) was “lower potency”.

For `COc1cc2ncnc(Nc3ccc(F)c(Cl)c3)c2cc1OCCCCCOCCOCCC(=O)N[C@H](C(=O)N1C[C@H](O)C[C@H]1C(=O)NCc1ccc(-c2scnc2C)cc1)C(C)(C)C` [PROTAC3, reference compound], the hook effect [1] is given as “much more significant hook effect”, the “potency at cell growth inhibition compared with gefitinib” value (H3255 cells) is given as “less potent” and the “degradation of the WT EGFR” value (WT EGFR [9]) is given as “did not degrade the WT EGFR”. For the same molecule, the hook effect (EGFR L858R [6]) was “much more significant hook effect”.

For `Cc1ncsc1-c1ccc(CNC(=O)[C@@H]2C[C@@H](O)CN2C(=O)[C@@H](NC(=O)C2(C#N)CC2)C(C)(C)C)cc1` [VH-298, reference compound], the “effect of 2 h pretreatment on EGFR degradation induced by compound 6” value (EGFR L858R [6]) was “blocked”.

In the case of `O=C1CCC(N2C(=O)c3ccccc3C2=O)C(=O)N1` (centres unmarked) [thalidomide, reference compound], the “effect of 2 h pretreatment on EGFR degradation induced by compound 10” value (EGFR L858R [6]) is reported as “blocked”.
